# Data taken from patent US7691858B2, “Kinase inhibitors and methods of use thereof” (TargeGen, Inc., priority 2006, dated 2010).
# How the values were obtained:
# JNK2a2 = JNK2a2 (Homo sapiens, UniProt P45984); test: Kinase panel screen; format: biochemical; conditions: Compound I and ATP 10 μM
# [1] = tested on: VE-cadherin phosphorylation; test: VEGF-induced VE-cadherin phosphorylation in EC (Western blot); format: cell-based; conditions: 10 uM Compound I, EC with VEGF
# Experimental: (§1) FIG. 3. Inhibition of cell proliferation and signaling. (a) EC were cultured in the presence of vehicle (DMSO) or PI3K inhibitors (all at 10 μM); cell proliferation was assessed either 24 (open bar), 48 (grey bar), or 72 h (black bar) later.
# (§2) Western blots: Cell cultures were rinsed twice with PBS and then lysed using RIPA buffer (100 mM Tris, 150 mM NaCl, 2 mM CaCl2, 1% deoxycholic acid, 1% Triton X-100, 0.1% SDS, pH 7.5) containing PMSF (2 mM), NaF (500 mM), aprotinin (10 μg/ml), leupeptin (10 μg/ml) and vanadate (1 mM). Tissue samples were placed in ice-cold RIPA buffer and processed to lysates using a FastPrep homogenizer (QBiogene, Carlsbad, Calif.). Lysates were centrifuged at 15,000×g followed by assay for total protein using the bicinchoninic acid method (Pierce Biotechnology, Rockford, Ill.), then loaded at equal protein concentration onto gels for SDS-PAGE electrophoresis and Western blotting. For phosphorylated VE-cadherin detection blots were probed with primary antibody (Santa Cruz Biotechnology, Santa Cruz, Calif.) followed by a chemiluminescent detection system (Pierce Biotechnology). The same techniques were used to detect both phosphorylated and total ERK and Akt, except that primary antibodies were supplied by Cell Signaling Technology (Beverly, Mass.) and BD Biosciences (San Jose, Calif.), respectively.
# KDR = target: T1, KDR (Homo sapiens, UniProt P35968); test: Kinase panel screen; format: biochemical; conditions: Compound I and ATP 10 μM
# T1 construct: purchased Upstate USA or Invitrogen (contract screening service)
# PKC8 = target: T2, PKC8 (Homo sapiens, UniProt Q05655); test: Kinase panel screen; format: biochemical; conditions: Compound I and ATP 10 μM
# T2 construct: purchased Upstate USA or Invitrogen (commercial screening service)
# MAPKAP-K2 = target: T3, MAPKAP-K2 (Homo sapiens, UniProt P49137); test: Kinase panel screen; format: biochemical; conditions: Compound I and ATP 10 μM
# T3 construct: purchased Upstate USA or Invitrogen (commercial screening service)
# Arg = target: T4, Arg (Homo sapiens, UniProt P42684); test: Kinase panel screen; format: biochemical; conditions: Compound I and ATP 10 μM
# T4 construct: purchased Upstate USA or Invitrogen (contract screening service)
# PKCy = target: T5, PKCy (Homo sapiens, UniProt P05129); test: Kinase panel screen; format: biochemical; conditions: Compound I and ATP 10 μM
# T5 construct: purchased Upstate USA or Invitrogen (commercial screening service)
# PKCi = target: T6, PKCi (Homo sapiens, UniProt P41743); test: Kinase panel screen; format: biochemical; conditions: Compound I and ATP 10 μM
# T6 construct: purchased Upstate USA or Invitrogen (commercial screening service)
# EphA4 = target: T7, EphA4 (Homo sapiens, UniProt P54764); test: Kinase panel screen; format: biochemical; conditions: Compound I and ATP 10 μM
# T7 construct: purchased Upstate USA or Invitrogen (commercial screening service)
# IKKa = target: T8, IKKa (Homo sapiens, UniProt O15111); test: Kinase panel screen; format: biochemical; conditions: Compound I and ATP 10 μM
# T8 construct: purchased Upstate USA or Invitrogen (commercial screening service)
# Lyn = target: T9, Lyn (Mus musculus, UniProt P25911); test: Kinase panel screen; format: biochemical; conditions: Compound I and ATP 10 μM
# T9 construct: purchased Upstate USA or Invitrogen (commercial screening service)
# CHK1 = CHK1 (Homo sapiens, UniProt O14757); test: Kinase panel screen; format: biochemical; conditions: Compound I and ATP 10 μM
# ERK phosphorylation = test: VEGF-stimulated ERK phosphorylation in EC (Western blot); format: cell-based; conditions: 10 uM Compound I, EC with VEGF
# Experimental: as §1, §2
# Flt3 = target: T10, Flt3 (Homo sapiens, UniProt P36888); test: Kinase panel screen; format: biochemical; conditions: Compound I and ATP 10 μM
# T10 construct: purchased Upstate USA or Invitrogen (commercial screening service)
# CDK5 = target: T11, CDK5 (Homo sapiens, UniProt Q00535); test: Kinase panel screen; format: biochemical; conditions: Compound I and ATP 10 μM
# T11 construct: purchased Upstate USA or Invitrogen (commercial screening service)
# NEK2 = target: T12, NEK2 (Homo sapiens, UniProt P51955); test: Kinase panel screen; format: biochemical; conditions: Compound I and ATP 10 μM
# T12 construct: purchased Upstate USA or Invitrogen (commercial screening service)
# Rse = target: T13, Rse (Homo sapiens, UniProt Q06418); test: Kinase panel screen; format: biochemical; conditions: Compound I and ATP 10 μM
# T13 construct: purchased Upstate USA or Invitrogen (commercial screening service)
# IKKβ = target: T14, IKKβ (Homo sapiens, UniProt O14920); test: Kinase panel screen; format: biochemical; conditions: Compound I and ATP 10 μM
# T14 construct: purchased Upstate USA or Invitrogen (commercial screening service)
# Lck = target: T15, Lck (Homo sapiens, UniProt P06239); test: Kinase panel screen; format: biochemical; conditions: Compound I and ATP 10 μM
# T15 construct: purchased Upstate USA or Invitrogen (contract screening service)
# CDK7 = target: T16, CDK7 (Homo sapiens, UniProt P50613); test: Kinase panel screen; format: biochemical; conditions: Compound I and ATP 10 μM
# T16 construct: purchased Upstate USA or Invitrogen (contract screening service)
# CaMKIV = target: T17, CaMKIV (Homo sapiens, UniProt Q16566); test: Kinase panel screen; format: biochemical; conditions: Compound I and ATP 10 μM
# T17 construct: purchased Upstate USA or Invitrogen (commercial screening service)
# PAK2 = target: T18, PAK2 (Homo sapiens, UniProt Q13177); test: Kinase panel screen; format: biochemical; conditions: Compound I and ATP 10 μM
# T18 construct: purchased Upstate USA or Invitrogen (commercial screening service)
# PAR-1Ba = target: T19, PAR-1Ba (Homo sapiens, UniProt Q7KZI7); test: Kinase panel screen; format: biochemical; conditions: Compound I and ATP 10 μM
# T19 construct: purchased Upstate USA or Invitrogen (commercial screening service)
# FGFR3 = target: T20, FGFR3 (Homo sapiens, UniProt P22607); test: Kinase panel screen; format: biochemical; conditions: Compound I and ATP 10 μM
# T20 construct: purchased Upstate USA or Invitrogen (contract screening service)
# CDK3 = target: T21, CDK3 (Homo sapiens, UniProt Q00526); test: Kinase panel screen; format: biochemical; conditions: Compound I and ATP 10 μM
# T21 construct: purchased Upstate USA or Invitrogen (commercial screening service)
# AMPK = test: Kinase panel screen; format: biochemical, rat; conditions: Compound I and ATP 10 μM
# ZIPK = ZIPK (Homo sapiens, UniProt O43293); test: Kinase panel screen; format: biochemical; conditions: Compound I and ATP 10 μM
# PKCpiI = target: T22, PKCpiI (Homo sapiens, UniProt P05771); test: Kinase panel screen; format: biochemical; conditions: Compound I and ATP 10 μM
# T22 construct: purchased Upstate USA or Invitrogen (commercial screening service)
# Yes = Yes (Homo sapiens, UniProt P07947); test: Kinase panel screen; format: biochemical; conditions: Compound I and ATP 10 μM
# CHK2 = target: T23, CHK2 (Homo sapiens, UniProt O96017); test: Kinase panel screen; format: biochemical; conditions: Compound I and ATP 10 μM
# T23 construct: purchased Upstate USA or Invitrogen (contract screening service)
# CDK2 = target: T24, CDK2 (Homo sapiens, UniProt P24941); test: Kinase panel screen; format: biochemical; conditions: Compound I and ATP 10 μM
# T24 construct: purchased Upstate USA or Invitrogen (commercial screening service)
# T15 sequence (P06239 whole entry): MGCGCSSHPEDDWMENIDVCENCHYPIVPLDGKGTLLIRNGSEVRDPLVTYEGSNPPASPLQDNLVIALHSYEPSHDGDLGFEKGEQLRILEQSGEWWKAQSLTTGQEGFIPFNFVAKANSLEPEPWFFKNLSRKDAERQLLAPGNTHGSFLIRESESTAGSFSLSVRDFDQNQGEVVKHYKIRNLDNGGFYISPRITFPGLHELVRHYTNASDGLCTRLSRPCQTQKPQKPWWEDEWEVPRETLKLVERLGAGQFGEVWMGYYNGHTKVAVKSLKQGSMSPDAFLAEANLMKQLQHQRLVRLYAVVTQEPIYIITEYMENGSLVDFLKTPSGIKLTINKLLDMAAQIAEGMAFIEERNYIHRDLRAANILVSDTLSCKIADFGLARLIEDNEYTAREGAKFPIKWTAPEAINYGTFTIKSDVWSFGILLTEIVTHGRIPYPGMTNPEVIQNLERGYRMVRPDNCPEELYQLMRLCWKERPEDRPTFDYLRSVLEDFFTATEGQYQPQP
# T12 sequence (P51955 whole entry): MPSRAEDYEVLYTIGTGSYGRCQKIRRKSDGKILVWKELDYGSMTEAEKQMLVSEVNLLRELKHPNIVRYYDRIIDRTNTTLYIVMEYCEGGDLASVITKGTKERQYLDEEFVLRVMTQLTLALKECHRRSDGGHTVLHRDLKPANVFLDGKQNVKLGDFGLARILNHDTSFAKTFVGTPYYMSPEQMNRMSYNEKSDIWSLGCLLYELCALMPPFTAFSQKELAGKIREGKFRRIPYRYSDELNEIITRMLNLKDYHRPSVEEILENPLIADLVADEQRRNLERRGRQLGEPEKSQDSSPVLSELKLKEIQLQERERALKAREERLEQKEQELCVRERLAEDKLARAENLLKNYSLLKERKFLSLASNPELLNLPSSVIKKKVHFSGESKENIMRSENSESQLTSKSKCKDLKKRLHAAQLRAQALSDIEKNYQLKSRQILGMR
# T16 sequence (P50613 whole entry): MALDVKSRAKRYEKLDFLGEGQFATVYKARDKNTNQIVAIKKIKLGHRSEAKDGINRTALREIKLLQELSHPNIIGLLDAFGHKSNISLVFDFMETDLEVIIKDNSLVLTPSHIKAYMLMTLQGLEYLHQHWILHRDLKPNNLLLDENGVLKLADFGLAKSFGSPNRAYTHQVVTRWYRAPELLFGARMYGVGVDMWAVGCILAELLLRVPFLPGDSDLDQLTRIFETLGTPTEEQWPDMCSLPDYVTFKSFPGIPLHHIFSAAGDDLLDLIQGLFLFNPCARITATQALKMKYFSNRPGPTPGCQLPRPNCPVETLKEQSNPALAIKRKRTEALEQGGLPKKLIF
# T16 sequence (P51946 whole entry partner): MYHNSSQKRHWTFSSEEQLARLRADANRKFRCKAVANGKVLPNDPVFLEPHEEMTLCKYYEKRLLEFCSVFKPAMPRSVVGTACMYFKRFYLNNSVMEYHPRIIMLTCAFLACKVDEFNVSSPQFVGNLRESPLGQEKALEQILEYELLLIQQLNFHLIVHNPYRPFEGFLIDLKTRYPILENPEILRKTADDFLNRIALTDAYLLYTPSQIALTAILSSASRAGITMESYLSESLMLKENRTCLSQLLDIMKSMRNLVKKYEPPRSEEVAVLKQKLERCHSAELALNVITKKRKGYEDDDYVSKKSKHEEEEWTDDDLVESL
# T16 sequence (P51948 whole entry partner): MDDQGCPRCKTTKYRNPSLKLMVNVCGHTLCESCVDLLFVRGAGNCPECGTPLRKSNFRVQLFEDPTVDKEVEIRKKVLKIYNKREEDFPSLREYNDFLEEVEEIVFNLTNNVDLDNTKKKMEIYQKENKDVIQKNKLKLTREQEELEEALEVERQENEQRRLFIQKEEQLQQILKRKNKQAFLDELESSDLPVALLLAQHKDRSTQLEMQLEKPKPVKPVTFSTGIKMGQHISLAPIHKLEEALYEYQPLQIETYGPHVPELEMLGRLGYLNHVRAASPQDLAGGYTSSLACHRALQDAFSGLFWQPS
# T20 sequence (P22607 23-806): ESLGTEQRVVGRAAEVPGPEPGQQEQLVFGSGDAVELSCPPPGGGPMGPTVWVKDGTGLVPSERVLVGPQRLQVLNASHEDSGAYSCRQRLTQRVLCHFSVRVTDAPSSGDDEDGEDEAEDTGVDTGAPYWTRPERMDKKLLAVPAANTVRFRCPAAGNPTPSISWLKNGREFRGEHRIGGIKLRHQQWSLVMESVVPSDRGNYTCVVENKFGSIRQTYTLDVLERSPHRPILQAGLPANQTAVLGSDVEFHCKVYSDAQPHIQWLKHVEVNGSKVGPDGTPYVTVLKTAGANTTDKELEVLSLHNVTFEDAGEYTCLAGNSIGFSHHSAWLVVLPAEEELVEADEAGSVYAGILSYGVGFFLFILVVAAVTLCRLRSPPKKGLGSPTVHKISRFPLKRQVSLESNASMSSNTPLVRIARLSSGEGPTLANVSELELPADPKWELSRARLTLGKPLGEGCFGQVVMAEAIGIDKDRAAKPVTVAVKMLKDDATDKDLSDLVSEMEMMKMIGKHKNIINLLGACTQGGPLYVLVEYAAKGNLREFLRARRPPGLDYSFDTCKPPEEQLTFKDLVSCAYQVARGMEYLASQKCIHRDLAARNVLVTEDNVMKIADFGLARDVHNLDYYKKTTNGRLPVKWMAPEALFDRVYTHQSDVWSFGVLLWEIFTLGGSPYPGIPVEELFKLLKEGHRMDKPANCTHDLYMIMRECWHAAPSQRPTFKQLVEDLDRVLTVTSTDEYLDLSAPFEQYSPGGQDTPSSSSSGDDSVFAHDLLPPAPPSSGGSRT
# T23 sequence (O96017 whole entry): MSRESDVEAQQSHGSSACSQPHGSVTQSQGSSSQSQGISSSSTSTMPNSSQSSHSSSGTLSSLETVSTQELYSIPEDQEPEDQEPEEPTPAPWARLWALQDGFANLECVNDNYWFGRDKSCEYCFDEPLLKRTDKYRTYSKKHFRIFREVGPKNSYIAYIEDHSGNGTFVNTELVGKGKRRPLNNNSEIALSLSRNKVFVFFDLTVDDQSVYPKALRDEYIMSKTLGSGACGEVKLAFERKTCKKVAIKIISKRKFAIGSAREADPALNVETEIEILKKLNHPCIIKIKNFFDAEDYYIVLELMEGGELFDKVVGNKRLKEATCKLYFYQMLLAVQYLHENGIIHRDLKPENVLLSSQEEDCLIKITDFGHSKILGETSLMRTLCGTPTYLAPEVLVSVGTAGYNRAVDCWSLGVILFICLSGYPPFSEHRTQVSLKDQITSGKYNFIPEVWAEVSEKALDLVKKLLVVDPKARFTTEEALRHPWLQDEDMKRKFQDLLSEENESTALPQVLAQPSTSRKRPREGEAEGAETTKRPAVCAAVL
# T11 sequence (Q00535 whole entry): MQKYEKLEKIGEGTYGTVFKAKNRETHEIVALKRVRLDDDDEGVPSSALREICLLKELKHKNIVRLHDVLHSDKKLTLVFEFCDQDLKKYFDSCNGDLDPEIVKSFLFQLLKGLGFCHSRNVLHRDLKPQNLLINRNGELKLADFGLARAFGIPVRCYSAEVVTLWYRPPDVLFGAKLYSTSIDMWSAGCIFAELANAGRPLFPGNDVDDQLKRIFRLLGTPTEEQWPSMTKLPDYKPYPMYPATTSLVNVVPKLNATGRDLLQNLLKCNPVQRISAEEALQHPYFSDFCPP
# T11 sequence (Q15078 whole entry partner): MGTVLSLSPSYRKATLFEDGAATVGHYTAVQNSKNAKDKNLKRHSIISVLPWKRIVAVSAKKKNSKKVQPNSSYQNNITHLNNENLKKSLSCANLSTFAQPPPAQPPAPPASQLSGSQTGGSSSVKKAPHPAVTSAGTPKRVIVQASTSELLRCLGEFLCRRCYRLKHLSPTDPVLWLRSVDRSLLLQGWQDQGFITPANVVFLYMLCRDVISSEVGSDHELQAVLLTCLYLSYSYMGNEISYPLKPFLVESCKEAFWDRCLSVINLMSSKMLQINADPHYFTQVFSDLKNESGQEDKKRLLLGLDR
# T8 sequence (O15111 whole entry): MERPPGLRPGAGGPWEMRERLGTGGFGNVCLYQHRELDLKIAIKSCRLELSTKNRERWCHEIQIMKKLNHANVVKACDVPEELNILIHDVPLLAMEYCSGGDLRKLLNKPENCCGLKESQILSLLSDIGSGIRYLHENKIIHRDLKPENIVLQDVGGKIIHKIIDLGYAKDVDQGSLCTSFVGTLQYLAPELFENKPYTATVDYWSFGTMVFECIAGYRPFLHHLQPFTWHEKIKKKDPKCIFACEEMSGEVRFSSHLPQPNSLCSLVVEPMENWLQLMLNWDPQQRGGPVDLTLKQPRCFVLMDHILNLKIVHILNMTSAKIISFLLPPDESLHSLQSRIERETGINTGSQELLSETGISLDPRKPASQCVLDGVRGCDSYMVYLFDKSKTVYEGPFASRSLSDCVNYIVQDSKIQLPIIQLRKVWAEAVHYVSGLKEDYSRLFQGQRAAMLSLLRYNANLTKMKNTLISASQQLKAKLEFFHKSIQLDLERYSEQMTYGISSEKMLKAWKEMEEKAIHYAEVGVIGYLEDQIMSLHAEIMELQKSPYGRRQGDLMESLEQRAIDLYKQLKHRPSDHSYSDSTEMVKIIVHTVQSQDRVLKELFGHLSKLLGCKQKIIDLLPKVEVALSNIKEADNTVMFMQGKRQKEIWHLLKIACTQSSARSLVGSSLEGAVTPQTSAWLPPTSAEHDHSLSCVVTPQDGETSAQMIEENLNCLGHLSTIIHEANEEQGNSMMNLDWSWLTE
smiles,measurement,setting,value
"Nc1nc(N)c2nc(-c3cccc(O)c3)c(-c3cccc(O)c3)nc2n1 [Compound I, 6,7-bis-(3-hydroxyphenyl)-pteridine-2,4-diamine]","Percent Control, JNK2a2",JNK2a2,91%
same,VEGF signaling culminating in VE-cadherin phosphorylation,[1],interrupt
same,"Percent Control, KDR",KDR,62%
same,"Percent Control, PKC8",PKC8,89%
same,"Percent Control, MAPKAP-K2",MAPKAP-K2,107%
same,"Percent Control, Arg",Arg,43%
same,"Percent Control, PKCy",PKCy,75%
same,"Percent Control, PKCi",PKCi,105%
same,"Percent Control, EphA4",EphA4,119%
same,"Percent Control, IKKa",IKKa,100%
same,"Percent Control, Lyn (m)",Lyn,41%
same,"Percent Control, CHK1",CHK1,100%
same,VEGF-stimulated ERK phosphorylation,ERK phosphorylation,no influence
same,"Percent Control, Flt3",Flt3,80%
same,"Percent Control, CDK5",CDK5,82%
same,"Percent Control, NEK2",NEK2,98%
same,"Percent Control, Rse",Rse,93%
same,"Percent Control, IKKβ",IKKβ,68%
same,"Percent Control, Lck",Lck,52%
same,"Percent Control, CDK7",CDK7,82%
same,"Percent Control, CaMKIV",CaMKIV,87%
same,"Percent Control, PAK2",PAK2,87%
same,"Percent Control, PAR-1Ba",PAR-1Ba,93%
same,"Percent Control, FGFR3",FGFR3,66%
same,"Percent Control, CDK3",CDK3,72%
same,"Percent Control, AMPK (r)",AMPK,88%
same,"Percent Control, ZIPK",ZIPK,112%
same,"Percent Control, PKCpiI",PKCpiI,80%
same,"Percent Control, Yes",Yes,30%
same,"Percent Control, CHK2",CHK2,75%
same,"Percent Control, CDK2 (first entry)",CDK2,67%
